{"source": "patent US12479803B2", "about": "“Antimalarial compounds” (UNIVERSITY OF CENTRAL FLORIDA RESEARCH FOUNDATION, INC., priority 2019, dated 2025)", "key": {"[1]": {"system": "CQ-resistant (Dd2) strain of P. falciparum", "conditions": "value reported from another study; cited from earlier work"}, "[2]": {"system": "CQ-resistant (Dd2) strain of P. falciparum", "test": "In vitro antiplasmodial activity, SYBR Green I fluorescence assay, Dd2 strain", "type": "cell-based, Plasmodium falciparum"}, "[3]": {"system": "P. falciparum 3D7 strain (CQ-sensitive)", "test": "In vitro antiplasmodium activity, 3D7 strain", "type": "cell-based, Plasmodium falciparum", "conditions": "Plasmodium falciparum, 3D7; Table 6A, nM; footnote calls it IC50; read-out: Antiplasmodium activity 3D7 (converted)", "method": "A set of 104 new styrylquinoline derivatives were synthesized and investigated for in vitro their antimalarial activity. To test antimalarial activities, different dilutions of compounds were added to P. falciparum culture. Following 72 h incubation at 37° C. in an atmosphere containing 5% CO2, the inhibitory property of the compounds were determined by SYBR Green I fluorescence assay. Meanwhile, SARs studies were conducted."}, "[4]": {"test": "Cytotoxicity assay using MTS in human hepatocytes", "type": "cell-based", "conditions": "human, HepG2 cells (human hepatocytes); Table 6B, unit inferred; footnote IC50 (HepG2); read-out: Cytotoxic activity HepG2 (converted)"}, "HepG2": {"system": "HepG2", "test": "Cytotoxicity assay using MTS in human hepatocytes", "type": "cell-based", "conditions": "HepG2 versus Dd2"}, "[5]": {"test": "In vitro microsomal turnover assay (metabolic stability)", "conditions": "mouse", "method": "Selectivity of compounds were determined by cytoxicity assay using MTS [(3-(4,5-dimethylthiazol-2-yl)-5-(3-carboxymethoxyphenyl)-2-(4-sulfophenyl)-2H-tetrazolium) in human hepatocytes. The metabolic stability of compounds was determined in mouse liver microsomes using an NADPH-regenerating system. The aqueous solubility at pH 7.4 was determined by UV-visible absorption based method. The permeability was assessed by the in vitro double-sink parallel artificial membrane permeability assay 52 that is a model for the passive transport from the gastrointestinal tract into the blood stream.\nTo assess the metabolic stability, the selected compounds were subjected to an in vitro microsomal turnover assay with mouse liver microsomal preparations. This assay determines the percentage of the parent compound residues after 60 min incubation (Table 7)."}, "[6]": {"system": "early stage (I-III) gametocytes of 3D7 expressing luciferase parasite", "test": "In vitro gametocytocidal activity, early stage", "type": "cell-based, Plasmodium falciparum", "conditions": "Plasmodium falciparum", "source_text": "(§1) Late stage (IV-V) gametocytes are more refractory to antimalarial drugs than early-stage gametocytes and blood stage parasites, and thus fewer compounds are effective against late stage Pf gametocytes. […] FIGS. 4A and 4B are an examples according to various embodiments illustrating results showing the activity of compound 24 on gametocyte stages, based on an evaluation of the viability of gametocytes after the exposure of compound 24 on early (A) and late (B) gametocytes stages of 3D7 expressing luciferase parasite. In FIGS. 4A and 4B, EC50 data represent the means and SEMs of three experiments. Therefore, arylvinylquinolines represented good leads as new antimalarials with promising dual stage (blood and gametocyte) activity."}, "[7]": {"system": "late stage (IV-V) gametocytes of 3D7 expressing luciferase parasite", "test": "In vitro gametocytocidal activity, late stage", "type": "cell-based, Plasmodium falciparum", "conditions": "Plasmodium falciparum, 3D7", "source_text": "as §1"}, "[8]": {"system": "β-hematin crystal formation", "test": "β-hematin inhibition experiment", "type": "biochemical", "conditions": "100 μM hemin, 16 h at 37° C., up to 200 μM compound", "method": "CQ and other aminoquinolines are known to fight against the malaria parasites by blocking hematin biocrystallization (hemozoin formation) through π-π stacking between the aminoquinoline scaffold and the heme. As a result, the accumulated toxic heme causes the parasite death by introducing oxidative membrane damage. β-hematin inhibition experiments were performed to determine possible mode of actions of arylvinylquinolines. FIG. 5A is an example according to various embodiments illustrating images of β-hematin crystals after incubation of 100 μM hemin, propionate buffer, phosphatidylcholine and, several concentrations of compound for 16 h at 37° C. […] In FIGS. 5A and 5B, the data are mean±SEM."}, "[9]": {"system": "tightly synchronized Dd2 parasites", "test": "Developmental stage specific action (Giemsa microscopy and flow cytometry)", "type": "cell-based, Plasmodium falciparum", "conditions": "5×EC50, treated at 6, 18, 30 and 42 h post-invasion", "method": "Accurate definition of the timing of action of antimalarial agents could give valuable insights into the developmental growth and clinical clearance of the parasite. To further understand the antimalarial activity of arylvinylquinolines, the developmental stage specific action of the most promising compound 24 was determined by both microscopy and flow cytometry analysis. Tightly synchronized cultures were exposed to 5×EC50 concentration of compound 24 at 6, 18, 30 and 42 hours post-invasion (HPI) of the merozoites. Microscopic analysis of Giemsa-stained-thin smears and flow cytometric evaluation were performed at 12 h intervals.\nIn FIGS. 2A and 2B, the results are representative of three independent biological replicates."}, "[10]": {"system": "asynchronous Dd2 parasite cultures", "test": "Kill kinetic experiments (rate of killing, parasitocidal/parasitostatic)", "type": "cell-based, Plasmodium falciparum", "conditions": "5×EC50 (Atovaquone 6.6 nM) for 6, 12, 24 and 48 h", "method": "To study whether arylvinylquinolines exerted their antiplasmodial activity through a parasitocidal or parasitostatic mechanism, kill kinetic experiments in Dd2 strain were performed. […] After washing to remove the inhibitors at these time points, the growth of the cultures was continued to be assessed for 96 h.\nFIGS. 3A, 3B, 3C, and 3D are examples according to various embodiments illustrating rate of killing and parasitocidal/parasitostatic activity determination of arylvinylquinolines. […] After each exposure, cultures were washed three times in RPMI, resuspended in culture media, and monitored for parasite growth daily for 4 days. DHA and Atovaquone (50 nM and 6.6 nM) were included as fast and slow acting controls, respectively. Parasitemia was determined by microscopy of Giemsa stained smear."}, "[11]": {"system": "P. berghei ANKA strain expressing luciferase", "test": "Rodent malaria model, Peters' four-day test with IVIS luminescence", "type": "in vivo", "conditions": "once daily, po", "method": "Phosphate salts of 24, 29 and 88 were assessed (referred to hereinafter as 24 s, 29 s, and 88 s) in female Swiss Webster mice infected with P. berghei ANKA strain since this strain produced histopathological and immunopathological features which were particularly similar to human cerebral malaria. […] FIG. 6B is an example according to various embodiments illustrating a chart showing the luminescence detected and quantified 7 days after infection of the Swiss Webster females shown in FIG. 6A, using an in vivo imaging system (IVIS). […] As observed from FIG. 6A-B, all these compounds completely cured malaria infection in mice when exposed to 100 mg/kg daily by p.o. administration in a standard Peters' four-day test, and no parasites visible in any of the tested mice were observed. […] Actually, this signal can also arise from dying parasites."}, "[12]": {"system": "P. berghei ANKA strain expressing luciferase", "test": "Survival of P. berghei ANKA infected mice (30 days)", "method": "In light of in vitro metabolic stability and in vivo efficacy mentioned above, compound 24 s was also administered at 100 and 25 mg/kg to malaria infected mice, and the survival rate was evaluated for 30 days. […] BALB/c females were infected with P. berghei ANKA strain expressing luciferase and treated 4 h post-infection with 25 and 100 mg/kg orally once daily for 4 days."}}, "note": "Entries after “also recorded” stand apart in the source; their conditions may differ. Like-named read-outs stand apart in the source and are kept apart here."}
{"smiles": "C[C@@H]1CC[C@H]2[C@@H](C)C(=O)O[C@@H]3O[C@@]4(C)CC[C@@H]1[C@]32OO4", "note": "[Artemisinin]", "values": [{"measurement": "EC50", "setting": "[1]", "value": "28 ± 6", "unit": "nM"}]}
{"smiles": "CN(C)CCNc1cc(/C=C/c2ccc(C(F)(F)F)cc2)nc2ccc(Cl)cc12", "note": "[Compound 24]", "values": [{"measurement": "RI, resistance index = [IC50 (Dd2)/IC50 (3D7)]", "setting": "[2]; Dd2 versus 3D7", "value": 0.6}, {"measurement": "EC50", "setting": "[2]; Plasmodium falciparum, DD2, Table 6A, unit not given (text gives nM), footnote calls it IC50, read-out: Antiplasmodium activity Dd2 (converted)", "value": "10.9 ± 1.9", "unit": "nM"}, {"measurement": "EC50", "setting": "[2]; Plasmodium falciparum, CQ-resistant (Dd2) strain, 72 h incubation, read-out: EC50 (nmol)", "value": "10.9 ± 1.9", "unit": "nM"}, {"measurement": "IC50", "setting": "[2]; Plasmodium falciparum, Dd2 strain", "value": "≤ 15", "unit": "nM"}, {"measurement": "EC50", "setting": "[2]; Plasmodium falciparum, Dd2 strain, read-out: EC50", "value": "≤ 15", "unit": "nM"}, {"measurement": "EC50", "setting": "[3]", "value": "16.8 ± 0.8", "unit": "nM"}, {"measurement": "IC50", "setting": "[4]", "value": "11.2 ± 1.85", "unit": "µM"}, {"measurement": "SI, selectivity index = [IC50 (HepG2)/IC50 (Dd2)]", "setting": "HepG2", "value": 1031}, {"measurement": "Projected t1/2", "setting": "[5]", "value": 104.2, "unit": "min"}, {"measurement": "Clint", "setting": "[5]; microsomes", "value": 13.3, "unit": "µL/min/mg"}, {"measurement": "% remaining after 60 min", "setting": "[5]; microsomes, 1 h", "value": 67.1, "unit": "%"}, {"measurement": "IC50", "setting": "[6]; 3D7, read-out: Early stage IC50 (nM)", "value": "472 ± 18.4", "unit": "nM"}, {"measurement": "EC50", "setting": "[6]; 3D7, read-out: Pf Gametocyte EC50 (early stage)", "value": "472 ± 18.4", "unit": "nM"}, {"measurement": "IC50", "setting": "[7]; late stage gametocytes, means and SEMs of three experiments", "value": "394 ± 99.4", "unit": "nM"}, {"measurement": "EC50", "setting": "[7]; read-out: Pf Gametocyte EC50 (late stage)", "value": "394 ± 99.4", "unit": "nM"}, {"measurement": "inhibitory activity towards β-hematin formation", "setting": "[8]", "value": "weaker inhibitory activity; also recorded: very low activity"}, {"measurement": "stage-specific inhibition of P. falciparum growth", "setting": "[9]", "value": "blocked at the trophozoite stage"}, {"measurement": "rate of killing (parasitemia after exposure and wash-out)", "setting": "[10]", "value": "remarkable reduction in parasitemias"}, {"measurement": "in vivo efficacy (efficacious dose)", "setting": "[11]", "value": 25, "unit": "mg/kg"}, {"measurement": "mice with 100% reduction of parasitemia", "setting": "[12]; 25 mg/kg, po", "value": "3/4"}, {"measurement": "mice with 100% reduction of parasitemia", "setting": "[12]; 100 mg/kg, p.o.", "value": "5/5"}, {"measurement": "tolerability / signs of toxicity", "setting": "[12]; infected mice, 25 and 100 mg/kg p.o.", "value": "without apparent signs of toxicity"}]}
